{
  "source": "patent US10463664B2",
  "about": "“Inhibitors of HSV nucleotidyl transferases and uses therefor” (Saint Louis University, priority 2013, dated 2019)",
  "key": {"[1]": {"test_system": "HSV-1 TK-deficient mutant ΔTK (strain 17)", "assay": "Replication inhibition of thymidine kinase-deficient HSV-1 mutant in Vero cells", "type": "cell-based, herpes simplex virus 1", "details": "50 μM, 24 h", "experimental": "(§1) Cells and Viruses. Vero cells were maintained in Dulbecco's modified Eagle's medium (DMEM) containing 3% newborn calf serum, 3% bovine growth serum, 2 mM L-glutamine and 100 IU/mL penicillin and 0.1 mg/mL streptomycin (P/S). Primary human foreskin fibroblasts (ATCC #CRL2429™) were cultured in DMEM containing 10% FBS, 2 mM L-glutamine plus P/S, and used at passage 3 to 12. HSV-1 #6 and HSV-2 #1 are de-identified clinical isolates from the Saint Louis University Hospital. Stocks were prepared after a single passage in cell culture and were titered by standard plaque assay (Knipe and Spang, 1982). Wild-type HSV-1 and HSV-2 used in FIG. 6 were laboratory strains 17 and 333, respectively. The HSV-1 TK-deficient mutant, ΔTK contains a 361-bp deletion between the BglII-SmaI restriction enzyme sites in the UL23 open reading frame of strain 17 (Korom, et al., 2013). The TK-deficient mutant of HSV-2 strain 333, ΔTK-, contains a 180-bp KpnI-KpnI deletion in the UL23 open reading frame that abrogates TK activity (McDermott, et al, 1984). ΔTK- was the generous gift of Jim Smiley. Virus stocks were grown and titered on Vero cells (Morrison and Knipe, 1996).\n(§2) Inhibition of acyclovir-resistant HSV-1 and HSV-2 mutants. […] HSV TK-deficient mutants are therefore insensitive to ACV. […] Vero cells were infected with laboratory strains of HSV-1 or HSV-2 and engineered TK-deficient mutants of the same strains. […] Similar patterns were seen when the compounds were used at 5 μM (FIG. 8B), although inhibition by compound #30 at 5 μM was too low to definitively interpret."}, "[2]": {"test_system": "TK-deficient mutant of HSV-2 strain 333, ΔTK-", "assay": "Replication inhibition of thymidine kinase-deficient HSV-2 mutant in Vero cells", "type": "cell-based, herpes simplex virus 2", "details": "50 μM, 24 h", "experimental": "as §1, §2"}, "[3]": {"test_system": "HSV-2", "assay": "HSV-2 viral DNA replication (quantitative PCR, GE) versus infectious virus (PFU) in Vero cells", "type": "cell-based, herpes simplex virus 2", "details": "for Fold suppression GE / Fold suppression PFU: 24 h, relative to DMSO", "experimental": "Quantitative PCR measurement of viral genome levels. Infected cell cultures were collected and virus and cells were pelleted by centrifugation for 30 min at 12,000 rpm. Total DNA was isolated from the pellets using a QIAamp DNA Mini Kit (Qiagen) according to the manufacturer's instructions. DNA concentration of each preparation was measured using a Nanodrop 2000 spectrophotometer. The primers and probe for real-time PCR were designed to amplify a 108 bp segment in the HSV-2 LAT region. […] PCR reactions were set up in 25 μL containing FastStart Universal Probe master mix containing Rox (Roche), 900 nM forward and reverse primers, 250 nM probe, and 5 μL template DNA preparation (˜30-100 ng total DNA). Quantification was performed in triplicate for each DNA preparation using an ABI model 7500 genetic analyzer (Applied Biosystems) with the following cycling parameters: 1 cycle at 50° C. for 2 min, 1 cycle at 95° C. for 10 min, 40 cycles at 95° C. for 15 s, and 60° C. for 1 min. For absolute quantification, 10^3 to 10^8 copies of plasmid pcDNA3.1(+)5′Flag-ICP0 was used to generate a standard curve. Data were analyzed using Sequence Detection System software (ABI), and HSV-2 genome equivalents number per nanogram of total DNA was calculated and used for comparison.\nViral replication was measured 24 hours post-infection by plaque assay, and DNA replication was measured using quantitative PCR against the LAT gene and expressed as genome-equivalents (GE). […] Two inhibitor concentrations were assessed for compounds #30 (60 and 20 μM) and #46 (20 and 10 μM)."}, "[4]": {"test_system": "primary human foreskin fibroblasts", "assay": "in vitro", "procedure,_shortened": "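Primary HFF, 1.0×10^4/well, exposed 24 h to 0.78–100 μM compound in 1% DMSO. Viability read by MTT (0.25 mg/mL, 60 min, 570 nm) and by protease-release lysis luminescence. CC50 by non-linear fit of percent viability.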"}, "[5]": {"test_system": "HCMV strain AD169", "assay": "Anti-HCMV CPE inhibition assay (crystal violet) in HFFs", "type": "cell-based, human cytomegalovirus", "details": "14 days; for EC50: read-out: EC50 against HCMV, CPE inhibition assay", "experimental": "(§3) Anti-HCMV CPE inhibition and cytotoxicity assays. HFFs were infected with HCMV strain AD169 in the presence of serial dilutions of the compounds from 0.0192 to 60 μM. Fourteen days later the monolayers were stained with crystal violet, and retained cell density was quantified using a multiplate autoreader (BioTek). Cytotoxicity was measured the same way, except that the cells were uninfected and neutral red internalization by viable cells was measured.\n(§4) Antiviral efficacy against HCMV. The ability of select HSV inhibitors to inhibit replication of another major human herpesvirus pathogen, human cytomegalovirus (HCMV) (65) was tested. This was based on the inhibitors strong suppression of HSV-1 and HSV-2 and the prediction that other members of the herpesvirus family would be sensitive to NTS inhibitors due to their shared DNA replication mechanism. Compounds #41, 46, 49, 55, 56, and 59 and the FDA-approved anti-HCMV drug ganciclovir were evaluated with crystal violet CPE and neutral red toxicity assays in HFFs. HFFs were infected with HCMV in the presence of serial dilutions of the compounds that were most inhibitory for HSVs. After 14 days the monolayers were stained and cell density was determined by OD reading. Compound cytotoxicity for uninfected cells was determined in the same manner except that neutral red uptake by viable cells was measured. […] The TI values for the four NTS inhibitors of HCMV ranged from 4 for compound #41 to 38 for #56. Therefore, NTS inhibitors can suppress HCMV replication in addition to inhibiting the HSVs."}, "[6]": {"test_system": "HFFs", "assay": "Neutral red cytotoxicity assay in uninfected HFFs (14 day, with CPE assay)", "type": "cell-based, human", "details": "14 days", "experimental": "as §3, §4"}},
  "note": "Like-named read-outs stand apart in the source and are kept apart here.",
  "data": [
    {"smiles": "Nc1nc2c(ncn2COCCO)c(=O)[nH]1", "note": "[ACV, Acyclovir, reference compound]", "values": [
      {"measurement": "Inhibition of TK-mutant HSV-1 (in words)", "setting": "[1]", "result": "little effect"},
      {"measurement": "Inhibition of TK-mutant HSV-2 (in words)", "setting": "[2]", "result": "little effect"}
    ]},
    {"smiles": "CCOc1ccc(-c2c3cc(O)c(=O)cc-3oc3cc(O)c(O)cc23)cc1", "note": "[Compound 30]", "values": [
      {"measurement": "Fold suppression PFU/GE", "setting": "[3]; 20 μM", "result": 4.5},
      {"measurement": "Fold suppression GE", "setting": "[3]; 20 μM", "result": 150, "unit": "fold"},
      {"measurement": "Fold suppression PFU", "setting": "[3]; 20 μM", "result": 676, "unit": "fold"},
      {"measurement": "Fold suppression PFU/GE", "setting": "[3]; 60 μM", "result": 143.7},
      {"measurement": "Fold suppression GE", "setting": "[3]; 60 μM", "result": 247, "unit": "fold"},
      {"measurement": "Fold suppression PFU", "setting": "[3]; 60 μM", "result": 35500, "unit": "fold"},
      {"measurement": "CC50", "setting": "[4]", "result": "> 100", "unit": "µM"},
      {"measurement": "Inhibition of TK-mutant HSV-1 (in words)", "setting": "[1]", "result": "efficiently inhibited"},
      {"measurement": "Inhibition of TK-mutant HSV-2 (in words)", "setting": "[2]", "result": "efficiently inhibited"}
    ]},
    {"smiles": "Cc1cc(C2CCCCC2)n(O)c(=O)c1", "note": "[Compound 41, Ciclopirox, reference compound]", "values": [
      {"measurement": "Fold suppression PFU/GE", "setting": "[3]; 10 μM", "result": 62.0},
      {"measurement": "Fold suppression GE", "setting": "[3]; 10 μM", "result": 551, "unit": "fold"},
      {"measurement": "Fold suppression PFU", "setting": "[3]; 10 μM", "result": 34159, "unit": "fold"},
      {"measurement": "EC50 against HCMV, CPE inhibition assay", "setting": "[5]", "result": "very low μM range"},
      {"measurement": "EC50", "setting": "[5]; Human betaherpesvirus 5, AD169, 336 h", "result": 2.1, "unit": "µM"},
      {"measurement": "CC50, neutral red", "setting": "[6]", "result": "measurable toxicity"},
      {"measurement": "Inhibition of TK-mutant HSV-1 (in words)", "setting": "[1]", "result": "efficiently inhibited"},
      {"measurement": "Inhibition of TK-mutant HSV-2 (in words)", "setting": "[2]", "result": "efficiently inhibited"}
    ]},
    {"smiles": "CC(C)c1ccc(O)c(=O)c(O)c1", "note": "[Compound 46, Beta-thujaplicinol]", "values": [
      {"measurement": "Fold suppression PFU/GE", "setting": "[3]; 10 μM", "result": 541.6},
      {"measurement": "Fold suppression GE", "setting": "[3]; 10 μM", "result": 470, "unit": "fold"},
      {"measurement": "Fold suppression PFU", "setting": "[3]; 10 μM", "result": 254536, "unit": "fold"},
      {"measurement": "Fold suppression PFU/GE", "setting": "[3]; 20 μM", "result": 538.2},
      {"measurement": "Fold suppression GE", "setting": "[3]; 20 μM", "result": 615, "unit": "fold"},
      {"measurement": "Fold suppression PFU", "setting": "[3]; 20 μM", "result": 331000, "unit": "fold"},
      {"measurement": "CC50", "setting": "[4]", "result": "> 100", "unit": "µM"},
      {"measurement": "EC50 against HCMV, CPE inhibition assay", "setting": "[5]", "result": "very low μM range"},
      {"measurement": "EC50", "setting": "[5]", "result": 1.4, "unit": "µM"},
      {"measurement": "CC50", "setting": "[6]", "result": "> 60", "unit": "µM"},
      {"measurement": "Inhibition of TK-mutant HSV-1 (in words)", "setting": "[1]", "result": "efficiently inhibited"},
      {"measurement": "Inhibition of TK-mutant HSV-2 (in words)", "setting": "[2]", "result": "efficiently inhibited"}
    ]},
    {"smiles": "CC(C)=CCc1ccc(O)c(=O)cc1C(C)C", "note": "[Compound 49, Nootkatin]", "values": [
      {"measurement": "CC50", "setting": "[4]", "result": "> 100", "unit": "µM"},
      {"measurement": "EC50 against HCMV, CPE inhibition assay", "setting": "[5]", "result": "very low μM range"},
      {"measurement": "EC50", "setting": "[5]", "result": 1.7, "unit": "µM"},
      {"measurement": "CC50", "setting": "[6]", "result": "> 60", "unit": "µM"}
    ]},
    {"smiles": "CC(=O)NC(CCc1ccc(Cl)c(Cl)c1)c1cccc(O)c(=O)c1", "note": "(stereo not shown) [Compound 55]", "values": [
      {"measurement": "CC50", "setting": "[4]", "result": "> 100", "unit": "µM"},
      {"measurement": "EC50", "setting": "[5]", "result": "> 60", "unit": "µM"},
      {"measurement": "CC50", "setting": "[6]", "result": "> 60", "unit": "µM"}
    ]},
    {"smiles": "C=C(C)C1CCc2c(c(C)cc(O)c(=O)c2O)C1", "note": "(stereo not shown) [Compound 56, Manicol]", "values": [
      {"measurement": "Fold suppression PFU/GE", "setting": "[3]; 20 μM", "result": 314.3},
      {"measurement": "Fold suppression GE", "setting": "[3]; 20 μM", "result": 420, "unit": "fold"},
      {"measurement": "Fold suppression PFU", "setting": "[3]; 20 μM", "result": 132000, "unit": "fold"},
      {"measurement": "CC50", "setting": "[4]", "result": "> 100", "unit": "µM"},
      {"measurement": "EC50 against HCMV, CPE inhibition assay", "setting": "[5]", "result": "very low μM range"},
      {"measurement": "EC50", "setting": "[5]", "result": 38.4, "unit": "µM"},
      {"measurement": "CC50", "setting": "[6]", "result": 38.4, "unit": "µM"},
      {"measurement": "CC50, neutral red", "setting": "[6]", "result": "measurable toxicity"}
    ]}
  ]
}
